This experiment has as its target T1, RpFNR (R. palustris TrxR-type FNR) (Rhodopseudomonas palustris, UniProt Q6N2U4).
T1 construct: gene RPA3954; domains span residues 2-344
Description: steady-state spectrophotometric NADPH:juglone reductase inhibition. To be noted: read-out: Kis. It counts as biochemical.

T1 sequence (Q6N2U4 whole entry, the tested form may be a part): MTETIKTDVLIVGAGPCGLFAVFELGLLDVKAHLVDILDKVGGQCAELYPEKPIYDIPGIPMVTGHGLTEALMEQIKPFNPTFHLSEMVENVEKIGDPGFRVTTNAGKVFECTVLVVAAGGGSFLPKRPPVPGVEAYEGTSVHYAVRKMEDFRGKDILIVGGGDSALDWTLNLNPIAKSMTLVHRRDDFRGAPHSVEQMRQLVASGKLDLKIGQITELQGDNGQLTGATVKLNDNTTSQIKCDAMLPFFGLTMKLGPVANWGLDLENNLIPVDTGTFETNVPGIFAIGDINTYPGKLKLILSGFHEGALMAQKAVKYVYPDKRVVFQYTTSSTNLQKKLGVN

For `NC(=O)c1ccc[n+]([C@@H]2O[C@H](COP(=O)(O)OP(=O)(O)OC[C@H]3O[C@@H](n4cnc5c(N)ncnc54)[C@H](OP(=O)(O)O)[C@@H]3O)[C@@H](O)[C@H]2O)c1` [NADP^+], the Ki stood at 150 ± 10 µM.

(Values after publication PMC9137726, “Thioredoxin Reductase-Type Ferredoxin: NADP^+ Oxidoreductase of Rhodopseudomonas palustris: Potentiometric Characteristics and Reactions with Nonphysiological Oxidants” (Antioxidants, 2022).)
